# Where two headings read alike, the source gives them in different places.
# Columns and labels:
# Type in all cases: biochemical
# human PPARγ-LBD = biological target: T1, human PPARγ-LBD (Homo sapiens, UniProt P37231); experiment: TR-FRET coactivator recruitment assay, PPARγ-LBD; conditions: for EC50: Buffer A; for Approximate potency order in the recruitment of four coactivators, PPARγ: evaluated based on EC50 values, PGC, PGC1α, SRC, SRC1, TRAP, TRAP220
# T1 construct: PPARγ-LBD (AAs 203–477 in isoform 1); made in house
# T1 sequence (P37231 203-477 isoform P37231-2): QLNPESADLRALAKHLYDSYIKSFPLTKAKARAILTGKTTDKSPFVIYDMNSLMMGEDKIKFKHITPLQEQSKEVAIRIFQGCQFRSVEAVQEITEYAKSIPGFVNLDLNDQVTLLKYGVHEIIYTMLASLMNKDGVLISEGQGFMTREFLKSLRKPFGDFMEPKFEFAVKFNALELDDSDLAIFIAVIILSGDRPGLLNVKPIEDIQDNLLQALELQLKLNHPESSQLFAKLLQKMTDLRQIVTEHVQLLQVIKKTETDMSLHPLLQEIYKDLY
# human PPARδ-LBD = biological target: T2, human PPARδ-LBD (Homo sapiens, UniProt Q03181); experiment: TR-FRET coactivator recruitment assay, PPARδ-LBD; conditions: for EC50: Buffer A; for Approximate potency order in the recruitment of four coactivators, PPARδ: evaluated based on EC50 values, PGC, PGC1α, SRC, SRC1, TRAP, TRAP220; for recruitment of coactivators to PPARδ-LBD (in words): four coactivator peptides
# T2 construct: PPARδ-LBD (AAs 170–441); made in house
# T2 sequence (Q03181 170-441): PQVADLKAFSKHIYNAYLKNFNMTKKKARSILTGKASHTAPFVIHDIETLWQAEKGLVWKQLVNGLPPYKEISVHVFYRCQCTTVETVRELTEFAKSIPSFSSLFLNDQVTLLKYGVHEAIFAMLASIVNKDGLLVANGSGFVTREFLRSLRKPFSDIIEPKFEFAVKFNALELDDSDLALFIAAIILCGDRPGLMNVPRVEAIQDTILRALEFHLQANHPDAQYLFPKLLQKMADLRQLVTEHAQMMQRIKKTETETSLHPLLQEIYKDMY
# human PPARα-LBD = biological target: T3, human PPARα-LBD (Homo sapiens, UniProt Q07869); experiment: TR-FRET coactivator recruitment assay, PPARα-LBD; conditions: for EC50: Buffer A; for Approximate potency order in the recruitment of four coactivators, PPARα: evaluated based on EC50 values, PGC, PGC1α, SRC, SRC1, TRAP, TRAP220
# T3 construct: Human PPARα-LBD [amino acids (AAs) 200–468]; made in house
# T3 sequence (Q07869 200-468): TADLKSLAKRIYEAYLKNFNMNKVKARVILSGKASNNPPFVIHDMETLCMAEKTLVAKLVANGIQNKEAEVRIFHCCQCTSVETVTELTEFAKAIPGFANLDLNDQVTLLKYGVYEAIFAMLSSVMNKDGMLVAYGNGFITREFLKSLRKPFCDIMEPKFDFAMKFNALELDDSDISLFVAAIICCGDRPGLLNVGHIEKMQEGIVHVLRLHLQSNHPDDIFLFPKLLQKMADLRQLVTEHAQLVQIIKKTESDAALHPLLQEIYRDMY
# [1] = CBP peptide recruitment, read-out: PPARγ CBP EC50
# [2] = PGC1α peptide recruitment, read-out: PPARγ PGC1α EC50
# [3] = SRC1 peptide recruitment, read-out: PPARγ SRC1 EC50
# [4] = TRAP220 peptide recruitment, read-out: PPARγ TRAP220 EC50
# [5] = read-out: PPARγ CBP % of GW1929 max response
# [6] = read-out: PPARγ PGC1α % of GW1929 max response
# [7] = read-out: PPARγ SRC1 % of GW1929 max response
# [8] = read-out: PPARγ TRAP220 % of GW1929 max response
# [9] = CBP peptide recruitment, read-out: PPARδ CBP EC50
# [10] = PGC1α peptide recruitment, read-out: PPARδ PGC1α EC50
# [11] = SRC1 peptide recruitment, read-out: PPARδ SRC1 EC50
# [12] = TRAP220 peptide recruitment, read-out: PPARδ TRAP220 EC50
# [13] = read-out: PPARδ CBP % of GW501516 max response
# [14] = read-out: PPARδ PGC1α % of GW501516 max response
# [15] = read-out: PPARδ SRC1 % of GW501516 max response
# [16] = read-out: PPARδ TRAP220 % of GW501516 max response
# [17] = CBP peptide recruitment, read-out: PPARα CBP EC50
# [18] = PGC1α peptide recruitment, read-out: PPARα PGC1α EC50
# [19] = SRC1 peptide recruitment, read-out: PPARα SRC1 EC50
# [20] = TRAP220 peptide recruitment, read-out: PPARα TRAP220 EC50
# [21] = read-out: PPARα CBP % of GW7647 max response
# [22] = read-out: PPARα PGC1α % of GW7647 max response
# [23] = read-out: PPARα SRC1 % of GW7647 max response
# [24] = read-out: PPARα TRAP220 % of GW7647 max response
smiles,measurement,setting,value
"CCO[C@H](COc1ccc(C(F)(F)F)cc1)CSc1ccc(OCC(=O)O)c(C)c1 [Seladelpar, seladelpar]",EC50,human PPARγ-LBD; [1],10.7 µM
same,EC50,human PPARγ-LBD; [2],4.98 µM
same,EC50,human PPARγ-LBD; [3],22.4 µM
same,EC50,human PPARγ-LBD; [4],13.6 µM
same,"Approximate potency order in the recruitment of four coactivators, PPARγ",human PPARγ-LBD,PGC=CBP>TRAP>SRC
same,Emax,human PPARγ-LBD; [5],45.9%
same,Emax,human PPARγ-LBD; [6],49.8%
same,Emax,human PPARγ-LBD; [7],11.9%
same,Emax,human PPARγ-LBD; [8],20.5%
same,EC50,human PPARδ-LBD; [9],0.0468 µM
same,EC50,human PPARδ-LBD; [10],0.0317 µM
same,EC50,human PPARδ-LBD; [11],0.0748 µM
same,EC50,human PPARδ-LBD; [12],0.0607 µM
same,"Approximate potency order in the recruitment of four coactivators, PPARδ",human PPARδ-LBD,PGC>CBP>SRC=TRAP
same,recruitment of coactivators to PPARδ-LBD (in words),human PPARδ-LBD,effective
same,EC50,"human PPARδ-LBD; range over PGC1α, CBP, SRC1, TRAP220, read-out: EC50 values on the four coactivators, PPARδ",0.0317 to 0.0748 µM
same,extent of recruitment of four coactivators to PPARδ-LBD,"human PPARδ-LBD; range over four coactivators, 100% = 0.1 µM GW501516",113–146%
same,Emax,human PPARδ-LBD; [13],120%
same,Emax,human PPARδ-LBD; [14],113%
same,Emax,human PPARδ-LBD; [15],146%
same,Emax,human PPARδ-LBD; [16],136%
same,EC50,human PPARα-LBD; [17],1.19 µM
same,EC50,human PPARα-LBD; [18],2.05 µM
same,EC50,human PPARα-LBD; [19],1.92 µM
same,EC50,human PPARα-LBD; [20],1.84 µM
same,"Approximate potency order in the recruitment of four coactivators, PPARα",human PPARα-LBD,CBP>PGC>SRC=TRAP
same,Emax,human PPARα-LBD; [21],49.2%
same,Emax,human PPARα-LBD; [22],34.3%
same,Emax,human PPARα-LBD; [23],15.5%
same,Emax,human PPARα-LBD; [24],11%
"CC(C)(Oc1ccc(C(=O)c2ccc(Cl)cc2)cc1)C(=O)O [Fenofibric acid, fenofibric acid]","Approximate potency order in the recruitment of four coactivators, PPARγ",human PPARγ-LBD,PGC=CBP=TRAP>SRC
same,Emax,human PPARγ-LBD; [5],73%
same,Emax,human PPARγ-LBD; [6],82.5%
same,Emax,human PPARγ-LBD; [7],42%
same,Emax,human PPARγ-LBD; [8],64.8%
same,EC50,human PPARδ-LBD; [9],> 500 µM
same,EC50,human PPARδ-LBD; [10],> 500 µM
same,EC50,human PPARδ-LBD; [11],> 500 µM
same,EC50,human PPARδ-LBD; [12],> 500 µM
same,"Approximate potency order in the recruitment of four coactivators, PPARδ",human PPARδ-LBD,No activation
same,Emax,human PPARδ-LBD; [13],0.45%
same,Emax,human PPARδ-LBD; [14],0.16%
same,Emax,human PPARδ-LBD; [15],0.6%
same,Emax,human PPARδ-LBD; [16],2.76%
same,EC50,human PPARα-LBD; [17],3.41 µM
same,EC50,human PPARα-LBD; [18],8.02 µM
same,EC50,human PPARα-LBD; [19],11.1 µM
same,EC50,human PPARα-LBD; [20],7.33 µM
same,"Approximate potency order in the recruitment of four coactivators, PPARα",human PPARα-LBD,CBP>TRAP>PGC>SRC
same,Emax,human PPARα-LBD; [21],80.8%
same,Emax,human PPARα-LBD; [22],36.8%
same,Emax,human PPARα-LBD; [23],78.3%
same,Emax,human PPARα-LBD; [24],86%
"CSc1ccc(C(=O)/C=C/c2cc(C)c(OC(C)(C)C(=O)O)c(C)c2)cc1 [Elafibranor, elafibranor]",EC50,human PPARγ-LBD; [1],> 10 µM
same,EC50,human PPARγ-LBD; [2],> 10 µM
same,EC50,human PPARγ-LBD; [3],> 30 µM
same,EC50,human PPARγ-LBD; [4],> 10 µM
same,"Approximate potency order in the recruitment of four coactivators, PPARγ",human PPARγ-LBD,PGC=CBP=TRAP>SRC
same,Emax,human PPARγ-LBD; [5],36%
same,Emax,human PPARγ-LBD; [6],30.8%
same,Emax,human PPARγ-LBD; [7],9.11%
same,Emax,human PPARγ-LBD; [8],29%
same,"Approximate potency order in the recruitment of four coactivators, PPARδ",human PPARδ-LBD,PGC>TRAP>CBP>SRC
same,recruitment of coactivators to PPARδ-LBD (in words),human PPARδ-LBD,effective
same,Emax,human PPARδ-LBD; [13],30.8%
same,Emax,human PPARδ-LBD; [14],68.5%
same,Emax,human PPARδ-LBD; [15],19.9%
same,Emax,human PPARδ-LBD; [16],44%
same,EC50,human PPARα-LBD; [17],2.77 µM
same,EC50,human PPARα-LBD; [18],6.44 µM
same,EC50,human PPARα-LBD; [19],4.98 µM
same,EC50,human PPARα-LBD; [20],4.28 µM
same,"Approximate potency order in the recruitment of four coactivators, PPARα",human PPARα-LBD,CBP>PGC=SRC=TRAP
same,Emax,human PPARα-LBD; [21],61.6%
same,Emax,human PPARα-LBD; [22],45.6%
same,Emax,human PPARα-LBD; [23],41.6%
same,Emax,human PPARα-LBD; [24],36.2%

# — paper PMC10967972, “Different Coactivator Recruitment to Human PPARα/δ/γ Ligand-Binding Domains by Eight PPAR Agonists to Treat Nonalcoholic Fatty Liver Disease” (Biomedicines, 2024)
